According to patent US20230293630A1, “Coronavirus T Cell Epitopes and Uses Thereof” (priority 2020, published 2023):
Where two headings read alike, the source gives them in different places.

System: SARS-CoV-2-specific CD4+ T cells (OX40+CD137+) in PBMC
Format: cell-based, human
[1] = CD4+ T cell epitopes identified by AIM assay, share of donors responding
[2] = CD4+ T cell epitopes identified by AIM assay, sum of response per responding donor
[3] = CD4+ T cell epitopes identified by AIM assay, total response
[4] = CD4+ T cell epitopes identified by AIM assay, percent of tested donors responding
[5] = CD4+ T cell epitopes identified by AIM assay, total response summed over donors

Row | Sequence | Frequency of response (%) [1] [%] | Magnitude by # of responding donors [2] | Sum of response [3] | Frequency of response (%) [4] [%] | Sum of response [5] | Frequency of response (%) | Magnitude by # of responding donors | Sum of response
1 | LKPFERDISTEIYQA | 17 | 594 | 1188 | – | – | – | – | –
2 | TTVAAFHQECSLQSC | 18 | 1008 | 2016 | – | – | – | – | –
3 | FGDQELIRQGTDYKH | 8 | 281 | 281 | – | – | – | – | –
4 | IVRFPNITNLCPFGE | – | 107 | – | 9 | 107 | – | – | –
5 | FVSLAIDAYPLTKHP | 14 | 115 | 230 | – | – | – | – | –
6 | GKGQQQQGQTVTKKS | 7 | 318 | 318 | – | – | – | – | –
7 | EGALNTPKDHIGTRN | 14 | 185 | 369 | – | – | – | – | –
8 | KPSKRSFIEDLLFNK | – | 622 | – | 17 | 1243 | – | – | –
9 | RPLLESELVIGAVIL | 8 | 183 | 183 | – | – | – | – | –
10 | SFLGRYMSALNHTKK | 9 | 219 | 219 | – | – | – | – | –
11 | YVVDDPCPIHFYSKW | 36 | 872 | 3488 | – | – | – | – | –
12 | VWHVNNATNKATYKP | 8 | 158 | 158 | – | – | – | – | –
13 | TQLNRALTGIAVEQD | – | 260 | – | 8 | 260 | – | – | –
14 | ARKSAPLIELCVDEA | 18 | 329 | 658 | – | – | – | – | –
15 | AENSVAYSNNSIAIP | 17 | 403 | 805 | – | – | – | – | –
16 | FNCYFPLQSYGFQPT | 8 | 130 | 130 | – | – | – | – | –
17 | DAALALLLLDRLNQL [SEQ ID NO 246] | 21 | 488 | 1463 | – | – | – | – | –
18 | FKIYSKHTPINLVRD | 18 | 484 | 967 | – | – | – | – | –
19 | GTILTRPLLESELVI | 17 | 161 | 322 | – | – | – | – | –

Row | Sequence | Frequency of response (%) [1] [%] | Magnitude by # of responding donors [2] | Sum of response [3] | Frequency of response (%) [4] [%] | Sum of response [5] | Frequency of response (%) | Magnitude by # of responding donors | Sum of response
20 | AVTANVNALLSTDGN | 7 | 201 | 201 | – | – | – | – | –
21 | KLLKSIAATRGATVV [SEQ ID NO 258] | – | 230 | – | 6 | 230 | – | – | –
22 | SELVIGAVILRGHLR | – | – | – | – | – | 33 | 141 | 563
23 | LTYTGAIKLDDKDPN | 17 | 742 | 1484 | – | – | – | – | –
24 | VVLSFELLHAPATVC | 7 | 317 | 317 | – | – | – | – | –
25 | AIKLDDKDPNFKDQV | 8 | 585 | 585 | – | – | – | – | –
26 | NPVLPFNDGVYFAST | 9 | 413 | 413 | – | – | – | – | –
27 | DSKTQSLLIVNNATN | 9 | 108 | 108 | – | – | – | – | –
28 | LGVYYHKNNKSWMES | 9 | 259 | 259 | – | – | – | – | –
29 | WDLTAFGLVAEWFLA | 8 | 134 | 134 | – | – | – | – | –
30 | QDALFAYTKRNVIPT | 6 | 132 | 132 | – | – | – | – | –
31 | VTLADAGFIKQYGDC | 17 | 119 | 237 | – | – | – | – | –
32 | VLAAVYRINWITGGI | 42 | 504 | 2519 | – | – | – | – | –
33 | QSINFVRIIMRLWLC [SEQ ID NO 252] | – | 168 | – | 21 | 505 | – | – | –
34 | CAQKFNGLTVLPPLL | – | 741 | – | 9 | 741 | – | – | –
35 | YLTFYLTNDVSFLAH | 17 | 358 | 715 | – | – | – | – | –
36 | KIITLKKRWQLALSK | 9 | 120 | 120 | – | – | – | – | –
37 | TPSFKKGAKLLHKPI | 8 | 103 | 103 | – | – | – | – | –
38 | IAATRGATVVIGTSK | 6 | 117 | 117 | – | – | – | – | –

Row | Sequence | Frequency of response (%) [1] [%] | Magnitude by # of responding donors [2] | Sum of response [3] | Frequency of response (%) [4] [%] | Sum of response [5] | Frequency of response (%) | Magnitude by # of responding donors | Sum of response
39 | LLEQWNLVIGFLFLT | 13 | 122 | 243 | – | – | – | – | –
40 | MWLSYFIASFRLFAR | 25 | 343 | 1030 | – | – | – | – | –
41 | SEMVMCGGSLYVKPG | 6 | 217 | 217 | – | – | – | – | –
42 | LMIERFVSLAIDAYP [SEQ ID NO 259] | – | 388 | – | 36 | 1941 | – | – | –
43 | IGNYTVSCLPFTINC | 45 | 245 | 1223 | – | – | – | – | –
44 | RRGPEQTQGNFGDQE | 8 | 518 | 518 | – | – | – | – | –
45 | CLVGLMWLSYFIASF | – | – | – | – | – | 33 | 295 | 1181
46 | SLQSCTQHQPYVVDD | 9 | 1222 | 1222 | – | – | – | – | –
47 | RFYFYTSKTTVASLI | 8 | 126 | 126 | – | – | – | – | –
48 | LLWPVTLACFVLAAV | 17 | 260 | 520 | – | – | – | – | –
49 | PLIELCVDEAGSKSP | 18 | 171 | 341 | – | – | – | – | –
50 | KHFYWFFSNYLKRRV [SEQ ID NO 244] | 8 | 959 | 959 | – | – | – | – | –
51 | IGNYKLNTDHSSSSD | 15 | 134 | 267 | – | – | – | – | –
52 | SALEPLVDLPIGINI | 9 | 167 | 167 | – | – | – | – | –
53 | KKPRQKRTATKAYNV | 31 | 227 | 907 | – | – | – | – | –
54 | FPRGQGVPINTNSSP | 8 | 397 | 397 | – | – | – | – | –
55 | GSLVVRCSFYEDFLE | 27 | 231 | 694 | – | – | – | – | –
56 | TQHQPYVVDDPCPIH | 36 | 338 | 1352 | – | – | – | – | –
